# In patent publication US20180319810A1, “SUBSTITUTED BRIDGED UREA ANALOGS AS SIRTUIN MODULATORS” (GlaxoSmithKline Intellectual Property (No.2) Limited, priority 2014, published 2018):
# Target: T1, SIRT1 (Homo sapiens, UniProt Q96EB6)
# T1 sequence (Q96EB6 1-747): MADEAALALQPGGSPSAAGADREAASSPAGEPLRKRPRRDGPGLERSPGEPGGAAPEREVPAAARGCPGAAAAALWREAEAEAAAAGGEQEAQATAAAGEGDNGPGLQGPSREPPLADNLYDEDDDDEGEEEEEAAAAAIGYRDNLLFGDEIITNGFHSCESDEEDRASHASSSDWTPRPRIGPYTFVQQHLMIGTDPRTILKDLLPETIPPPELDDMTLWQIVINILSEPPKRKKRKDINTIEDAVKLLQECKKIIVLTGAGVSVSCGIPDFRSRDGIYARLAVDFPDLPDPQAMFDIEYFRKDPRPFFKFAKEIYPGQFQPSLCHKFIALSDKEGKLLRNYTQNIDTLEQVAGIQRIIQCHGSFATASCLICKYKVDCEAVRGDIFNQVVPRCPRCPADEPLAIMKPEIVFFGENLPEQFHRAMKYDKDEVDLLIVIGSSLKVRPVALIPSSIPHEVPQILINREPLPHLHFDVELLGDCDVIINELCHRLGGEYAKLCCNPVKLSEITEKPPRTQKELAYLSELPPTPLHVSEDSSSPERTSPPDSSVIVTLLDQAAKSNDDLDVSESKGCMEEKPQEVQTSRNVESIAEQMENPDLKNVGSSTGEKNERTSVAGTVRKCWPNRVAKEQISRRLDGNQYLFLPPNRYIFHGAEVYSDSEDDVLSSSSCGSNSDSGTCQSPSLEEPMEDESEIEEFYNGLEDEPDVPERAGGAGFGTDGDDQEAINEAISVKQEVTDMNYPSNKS
# Assay: Trp mass spectrometry assay of SIRT1 activation
# Format: biochemical
# Details: Trp peptide Ac-R-H-K-K(Ac)-W-NH2 0.5 μM, 120 μM βNAD+, 10 nM SIRT1, 25 min, 25° C.
SMILES,"TRP Activity (EC1.5, concentration of compound required to increase SIRT1 activity by 50% over control)",TRP MAX RESP (percent maximum fold activation relative to control)
"O=C(Nc1ccc(OC[C@@H](O)CO)cn1)N1c2nc(-c3cccc(C(F)(F)F)c3)ncc2N2CCC[C@H]1C2 [Example 98, (9S)—N-(5-((S)-2,3-dihydroxypropoxy)pyridin-2-yl)-2-(3-(trifluoromethyl)phenyl)-8,9-dihydro-6H-5,9-methanopyrimido[4,5-b][1,4]diazocine-10(7H)-carboxamide]",A (EC1.5<1 μM),A (Fold activation ≥150%)
"Cc1nc(C(=O)N[C@H](C)C(F)(F)F)nc2c1N1CCC[C@@H](C1)N2C(=O)Nc1ccc(OC[C@@H](O)CO)nn1 [Example 74, (9S)—N10-(6-((S)-2,3-dihydroxypropoxy)pyridazin-3-yl)-4-methyl-N2-((R)-1,1,1-trifluoropropan-2-yl)-8,9-dihydro-6H-5,9-methanopyrimido[4,5-b][1,4]diazocine-2,10(7H)-dicarboxamide]",B (EC1.5 1-25 μM),A (Fold activation ≥150%)
"Cc1ccc2c(NC(=O)N3c4nc(C(=O)N[C@H](C)C(F)(F)F)nc(C)c4N4CCC[C@H]3C4)n[nH]c2n1 [Example 73, (9S)-4-methyl-N10-(6-methyl-1H-pyrazolo[3,4-b]pyridin-3-yl)-N2-((R)-1,1,1-trifluoropropan-2-yl)-8,9-dihydro-6H-5,9-methanopyrimido[4,5-b][1,4]diazocine-2,10(7H)-dicarboxamide]",A (EC1.5<1 μM),A (Fold activation ≥150%)
"C[C@@H](NC(=O)c1ncc2c(n1)N(C(=O)Nc1cc(OC[C@H](O)CO)ccn1)[C@H]1CCCN2C1)C(F)(F)F [Example 64, (9S)—N10-(4-((R)-2,3-dihydroxypropoxy)pyridin-2-yl)-N2-((R)-1,1,1-trifluoropropan-2-yl)-8,9-dihydro-6H-5,9-methanopyrimido[4,5-b][1,4]diazocine-2,10(7H)-dicarboxamide]",A (EC1.5<1 μM),A (Fold activation ≥150%)
"O=C(Nc1cncc(OC[C@H](O)CO)n1)N1c2nc(-c3cccc(C(F)(F)F)c3)ncc2N2CCC[C@H]1C2 [Example 95, (9S)—N-(6-((R)-2,3-dihydroxypropoxy)pyrazin-2-yl)-2-(3-(trifluoromethyl)phenyl)-8,9-dihydro-6H-5,9-methanopyrimido[4,5-b][1,4]diazocine-10(7H)-carboxamide]",A (EC1.5<1 μM),A (Fold activation ≥150%)
"O=C(Nc1cncc(OC[C@H](O)CO)c1)N1c2nc(-c3cccc(C(F)(F)F)c3)ncc2N2CC[C@H]1C2 [Example 35, (8S)—N-(5-((R)-2,3-dihydroxypropoxy)pyridin-3-yl)-2-(3-(trifluoromethyl)phenyl)-7,8-dihydro-5,8-methanopyrimido[4,5-b][1,4]diazepine-9(6H)-carboxamide]",B (EC1.5 1-25 μM),A (Fold activation ≥150%)
"Cc1ccc2c(NC(=O)N3c4nc(C(=O)NCC(F)(F)F)ncc4N4CCC[C@H]3C4)n[nH]c2n1 [Example 65, (9S)—N10-(6-methyl-1H-pyrazolo[3,4-b]pyridin-3-yl)-N2-(2,2,2-trifluoroethyl)-8,9-dihydro-6H-5,9-methanopyrimido[4,5-b][1,4]diazocine-2,10(7H)-dicarboxamide]",B (EC1.5 1-25 μM),A (Fold activation ≥150%)
"O=C(Nc1ccc(OC[C@H](O)CO)nc1)N1c2nc(-c3cccc(C(F)(F)F)c3)ncc2N2CC[C@H]1C2 [Example 39, (8S)—N-(6-((R)-2,3-dihydroxypropoxy)pyridin-3-yl)-2-(3-(trifluoromethyl)phenyl)-7,8-dihydro-5,8-methanopyrimido[4,5-b][1,4]diazepine-9(6H)-carboxamide]",A (EC1.5<1 μM),A (Fold activation ≥150%)
"O=C(Nc1cnnc(OC[C@H](O)CO)c1)N1c2nc(-c3cccc(C(F)(F)F)c3)ncc2N2CCC[C@H]1C2 [Example 110, (9S)—N-(6-((R)-2,3-dihydroxypropoxy)pyridazin-4-yl)-2-(3-(trifluoromethyl)phenyl)-8,9-dihydro-6H-5,9-methanopyrimido[4,5-b][1,4]diazocine-10(7H)-carboxamide]",A (EC1.5<1 μM),A (Fold activation ≥150%)
"O=C(Nc1ncc(OC[C@@H](O)CO)cn1)N1c2nc(-c3cccc(C(F)(F)F)c3)ncc2N2CC[C@H]1C2 [Example 43, (8S)—N-(5-((S)-2,3-dihydroxypropoxy)pyrimidin-2-yl)-2-(3-(trifluoromethyl)phenyl)-7,8-dihydro-5,8-methanopyrimido[4,5-b][1,4]diazepine-9(6H)-carboxamide]",B (EC1.5 1-25 μM),A (Fold activation ≥150%)

# Second part, the compound after the results:
"TRP Activity (EC1.5, concentration of compound required to increase SIRT1 activity by 50% over control)",TRP MAX RESP (percent maximum fold activation relative to control),SMILES
B (EC1.5 1-25 μM),A (Fold activation ≥150%),"Cc1ccc(-c2nc(C)c3c(n2)N(C(=O)Nc2ccccn2)[C@H]2CCN3C2)cn1 [Example 12, (8S)-4-methyl-2-(6-methylpyridin-3-yl)-N-(pyridin-2-yl)-7,8-dihydro-5,8-methanopyrimido[4,5-b][1,4]diazepine-9(6H)-carboxamide]"
B (EC1.5 1-25 μM),A (Fold activation ≥150%),"O=C(NCC(F)(F)F)c1ncc2c(n1)N(C(=O)Nc1ccccn1)[C@H]1CCN2C1 [Example 58, (8S)—N9-(pyridin-2-yl)-N2-(2,2,2-trifluoroethyl)-7,8-dihydro-5,8-methano pyrimido[4,5-b][1,4]diazepine-2,9(6H)-dicarboxamide]"
B (EC1.5 1-25 μM),A (Fold activation ≥150%),"Cc1cc(-c2ncc3c(n2)N(C(=O)Nc2cccnc2)[C@H]2CCN3C2)ccn1 [Example 6, (8S)-2-(2-methylpyridin-4-yl)-N-(pyridin-3-yl)-7,8-dihydro-5,8-methano pyrimido[4,5-b][1,4]diazepine-9(6H)-carboxamide]"
B (EC1.5 1-25 μM),,"Cc1ccc(-c2ncc3c(n2)N(C(=O)Nc2ccccn2)[C@H]2CCN3C2)cn1 [Example 4, (8S)-2-(6-methylpyridin-3-yl)-N-(pyridin-2-yl)-7,8-dihydro-5,8-methanopyrimido[4,5-b][1,4]diazepine-9(6H)-carboxamide]"
A (EC1.5<1 μM),A (Fold activation ≥150%),"O=C(Nc1cccc(OC[C@H](O)CO)n1)N1c2nc(-c3cccc(C(F)(F)F)c3)ncc2N2CC[C@H]1C2 [Example 22, (8S)—N-(6-((R)-2,3-dihydroxypropoxy)pyridin-2-yl)-2-(3-(trifluoromethyl)phenyl)-7,8-dihydro-5,8-methanopyrimido[4,5-b][1,4]diazepine-9(6H)-carboxamide]"
A (EC1.5<1 μM),A (Fold activation ≥150%),"C[C@@H](NC(=O)c1ncc2c(n1)N(C(=O)Nc1ccccn1)[C@H]1CCN2C1)C(F)(F)F [Example 59, (8S)—N9-(pyridin-2-yl)-N2-((R)-1,1,1-trifluoropropan-2-yl)-7,8-dihydro-5,8-methanopyrimido[4,5-b][1,4]diazepine-2,9(6H)-dicarboxamide]"
B (EC1.5 1-25 μM),A (Fold activation ≥150%),"Cc1cc(-c2nc(C)c3c(n2)N(C(=O)Nc2ccccn2)[C@H]2CCN3C2)ccn1 [Example 10, (8S)-4-methyl-2-(2-methylpyridin-4-yl)-N-(pyridin-2-yl)-7,8-dihydro-5,8-methanopyrimido[4,5-b][1,4]diazepine-9(6H)-carboxamide]"
B (EC1.5 1-25 μM),A (Fold activation ≥150%),"Cc1nc(-c2cccc(C(F)(F)F)c2)nc2c1N1CC[C@@H](C1)N2C(=O)Nc1cncc(OC[C@@H](O)CO)c1 [Example 46, (8S)—N-(5-((S)-2,3-dihydroxypropoxy)pyridin-3-yl)-4-methyl-2-(3-(trifluoromethyl)phenyl)-7,8-dihydro-5,8-methanopyrimido[4,5-b][1,4]diazepine-9(6H)-carboxamide]"
